Measurements as given in US12365664B2, “Small molecule inhibitors of SRC tyrosine kinase” (Dana-Farber Cancer Institute, Inc., priority 2019, dated 2025).

Experiments:
SRC = SRC (Homo sapiens (Human), UniProt P12931); assay: SelectScreen Kinase Profiling Services commercial assay (ThermoFisher), SRC; format: biochemical
YES1 = YES1 (Homo sapiens (Human), UniProt P07947); assay: SelectScreen Kinase Profiling Services commercial assay (ThermoFisher), YES1; format: biochemical
YES1, sequence (P07947 whole entry): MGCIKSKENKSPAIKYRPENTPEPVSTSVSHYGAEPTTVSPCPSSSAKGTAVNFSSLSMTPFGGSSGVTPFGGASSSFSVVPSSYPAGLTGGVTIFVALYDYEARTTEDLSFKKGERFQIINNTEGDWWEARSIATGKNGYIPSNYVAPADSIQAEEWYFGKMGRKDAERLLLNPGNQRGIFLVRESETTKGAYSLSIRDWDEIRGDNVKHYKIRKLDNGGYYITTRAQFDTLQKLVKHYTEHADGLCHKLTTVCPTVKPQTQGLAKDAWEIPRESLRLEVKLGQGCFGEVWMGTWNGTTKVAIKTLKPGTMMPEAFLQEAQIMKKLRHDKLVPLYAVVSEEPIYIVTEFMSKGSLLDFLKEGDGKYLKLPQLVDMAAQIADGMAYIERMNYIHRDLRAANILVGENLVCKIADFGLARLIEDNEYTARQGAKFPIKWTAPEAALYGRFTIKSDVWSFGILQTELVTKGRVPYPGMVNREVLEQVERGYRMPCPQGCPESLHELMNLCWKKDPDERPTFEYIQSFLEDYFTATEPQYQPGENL

SRC, sequence (P12931 whole entry): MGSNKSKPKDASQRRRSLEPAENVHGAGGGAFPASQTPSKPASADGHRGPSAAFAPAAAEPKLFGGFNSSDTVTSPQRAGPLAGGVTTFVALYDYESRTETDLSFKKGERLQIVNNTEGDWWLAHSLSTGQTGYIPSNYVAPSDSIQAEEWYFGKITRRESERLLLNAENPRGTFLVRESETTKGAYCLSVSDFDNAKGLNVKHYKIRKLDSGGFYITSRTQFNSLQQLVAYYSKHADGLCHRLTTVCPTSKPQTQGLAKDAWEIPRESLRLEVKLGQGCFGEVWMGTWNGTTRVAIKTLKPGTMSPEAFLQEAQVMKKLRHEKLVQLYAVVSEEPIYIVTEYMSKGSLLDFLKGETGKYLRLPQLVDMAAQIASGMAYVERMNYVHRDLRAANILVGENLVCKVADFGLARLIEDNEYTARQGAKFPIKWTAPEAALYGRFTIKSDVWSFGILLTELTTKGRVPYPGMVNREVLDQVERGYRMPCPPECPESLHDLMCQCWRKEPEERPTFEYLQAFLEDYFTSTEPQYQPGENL

| SMILES | IC50 (SRC) [nM] | IC50 (YES1) [nM] |
| --- | --- | --- |
| C=CC(=O)Nc1ccccc1Nc1nc(Nc2ccc(N3CCN(C)CC3)cc2)nc2sccc12 [Compound 14, N-{2-[(2-{[4-(4-methylpiperazin-1-yl)phenyl]amino}thieno[2,3-d]pyrimidin-4-yl)amino]phenyl}prop-2-enamide] | 100 to 1000 | 10 to 100 |
| C=CC(=O)Nc1ccccc1Nc1nc(Nc2ccc(N3CCN(C)CC3)cc2)ncc1C [Compound 4, N-{2-[(5-methyl-2-{[4-(4-methylpiperazin-1-yl)phenyl]amino}pyrimidin-4-yl)amino]phenyl}prop-2-enamide] | 1 to 10 | 1 to 10 |
| C=CC(=O)Nc1cccc(CNc2nc(Nc3ccc(N4CCN(C)CC4)cc3)ncc2C(=O)Nc2c(C)cccc2Cl)c1 [Compound 49] | 10 to 100 |  |
| C=CC(=O)Nc1ccccc1Nc1nc(Nc2ccc(N3CCN(C)CC3)cc2)ncc1-c1ccc(OC)nc1 [Compound 9, N-(2-((5-(6-methoxypyridin-3-yl)-2-((4-(4-methylpiperazin-1-yl)phenyl)amino)pyrimidin-4-yl)amino)phenyl)acrylamide] | 1 to 10 | 1 to 10 |
| C=CC(=O)Nc1ccccc1Nc1nc(Nc2ccc(N3CCN(C)CC3)cc2)ncc1Cl [SM1-71, reference compound] | 1 to 10 | 1 to 10 |
| C=CC(=O)Nc1ccccc1Nc1nc(Nc2ccc(N3CCN(C)CC3)cc2)ncc1-c1cccs1 [Compound 6, N-(2-((2-((4-(4-methylpiperazin-1-yl)phenyl)amino)-5-(thiophen-2-yl)pyrimidin-4-yl)amino)phenyl)acrylamide] | 1 to 10 | 1 to 10 |
| C=CC(=O)Nc1ccc(C)cc1Nc1nc(Nc2ccc(N3CCN(C)CC3)cc2)ncc1Cl [Compound 32, N-{2-[(5-chloro-2-{[4-(4-methylpiperazin-1-yl)phenyl]amino}pyrimidin-4-yl)amino]-4-methylphenyl}prop-2-enamide] | 10 to 100 | 1 to 10 |
| C=CC(=O)Nc1cccc(C)c1Nc1nc(Nc2ccc(N3CCN(C)CC3)cc2)ncc1Cl [Compound 31, N-{2-[(5-chloro-2-{[4-(4-methylpiperazin-1-yl)phenyl]amino}pyrimidin-4-yl)amino]-3-methylphenyl}prop-2-enamide] | 1000 to 10000 | 100 to 1000 |
| C=CC(=O)Nc1c(F)cccc1Nc1nc(Nc2ccc(N3CCN(C)CC3)cc2)ncc1Cl [Compound 39, N-{2-[(5-chloro-2-{[4-(4-methylpiperazin-1-yl)phenyl]amino}pyrimidin-4-yl)amino]-6-fluorophenyl}prop-2-enamide] | 1 to 10 |  |
| C=CC(=O)Nc1ccccc1Nc1nc(Nc2ccc(N3CCN(C)CC3)cc2)nc(N)c1Cl [Compound 13, N-{2-[(6-amino-5-chloro-2-{[4-(4-methylpiperazin-1-yl)phenyl]amino}pyrimidin-4-yl)amino]phenyl}prop-2-enamide] | 10 to 100 | 1 to 10 |
| C=CC(=O)Nc1ccccc1Nc1nc(Nc2ccc(N3CCN(C)CC3)cc2)ncc1OCc1c(C)cccc1Cl [Compound 17, N-(2-((5-((2-chloro-6-methylbenzyl)oxy)-2-((4-(4-methylpiperazin-1-yl)phenyl)amino)pyrimidin-4-yl)amino)phenyl)acrylamide] | 1 to 10 |  |
| C=CC(=O)Nc1ccccc1Nc1nc(Nc2ccc(N3CCN(C)CC3)cc2)ncc1C(=O)NCc1ccc(Oc2ccccc2)cc1 [Compound 19, 2-{[4-(4-methylpiperazin-1-yl)phenyl]amino}-N-[(4-phenoxyphenyl)methyl]-4-{[2-(prop-2-enamido)phenyl]amino}pyrimidine-5-carboxamide] | > 10000 | > 10000 |
| C=CC(=O)Nc1ccc(CNc2nc(Nc3ccc(N4CCN(C)CC4)cc3)ncc2C(=O)Nc2c(C)cccc2Cl)cc1 [Compound 51] | 10 to 100 |  |
| C=CC(=O)Nc1ccccc1Nc1nc(Nc2ccc(N3CCN(C)CC3)cc2)ncc1CC [Compound 2, N-{2-[(5-ethyl-2-{[4-(4-methylpiperazin-1-yl)phenyl]amino}pyrimidin-4-yl)amino]phenyl}prop-2-enamide] | 1 to 10 | 1 to 10 |

Now from value to molecule:

| IC50 (SRC) [nM] | IC50 (YES1) [nM] | SMILES |
| --- | --- | --- |
| 1 to 10 |  | C=CC(=O)Nc1cc(F)ccc1Nc1nc(Nc2ccc(N3CCN(C)CC3)cc2)ncc1Cl [Compound 40, N-{2-[(5-chloro-2-{[4-(4-methylpiperazin-1-yl)phenyl]amino}pyrimidin-4-yl)amino]-5-fluorophenyl}prop-2-enamide] |
| 1 to 10 |  | C=CC(=O)Nc1ccccc1CNc1nc(Nc2ccc(N3CCN(C)CC3)cc2)ncc1C(=O)Nc1c(C)cccc1Cl [Compound 50] |
| 10 to 100 |  | C=CC(=O)Nc1ccc(C)cc1Nc1nc(Nc2ccc(N3CCN(C)CC3)cc2)ncc1C(=O)Nc1c(C)cccc1Cl [Compound 35, N-(2-chloro-6-methylphenyl)-4-{[5-methyl-2-(prop-2-enamido)phenyl]amino}-2-{[4-(4-methylpiperazin-1-yl)phenyl]amino}pyrimidine-5-carboxamide] |
| 1 to 10 | 1 to 10 | C=CC(=O)Nc1ccccc1Nc1nc(Nc2ccc(N3CCN(C)CC3)cc2)nc2ccsc12 [Compound 11, N-{2-[(2-{[4-(4-methylpiperazin-1-yl)phenyl]amino}thieno[3,2-d]pyrimidin-4-yl)amino]phenyl}prop-2-enamide] |
| 1 to 10 | < 1 | C=CC(=O)Nc1cccc(F)c1Nc1nc(Nc2ccc(N3CCN(C)CC3)cc2)ncc1C(=O)Nc1c(C)cccc1Cl [Compound 42, N-(2-chloro-6-methylphenyl)-4-{[2-fluoro-6-(prop-2-enamido)phenyl]amino}-2-{[4-(4-methylpiperazin-1-yl)phenyl]amino}pyrimidine-5-carboxamide] |
| 100 to 1000 | 10 to 100 | C=CC(=O)Nc1ccc(C)cc1Nc1nc(Nc2ccc(N3CCN(C)CC3)cc2)nc2ccsc12 [Compound 46, N-{4-methyl-2-[(2-{[4-(4-methylpiperazin-1-yl)phenyl]amino}thieno[3,2-d]pyrimidin-4-yl)amino]phenyl}prop-2-enamide] |
| 1 to 10 | < 1 | C=CC(=O)Nc1ccccc1Nc1nc(Nc2ccc(N3CCN(C)CC3)cc2)ncc1C(=O)Nc1c(C)cccc1C [Compound 28, N-(2,6-dimethylphenyl)-2-{[4-(4-methylpiperazin-1-yl)phenyl]amino}-4-{[2-(prop-2-enamido)phenyl]amino}pyrimidine-5-carboxamide] |
| 1 to 10 | 1 to 10 | C=CC(=O)Nc1ccccc1Nc1nc(Nc2ccc(N3CCN(C)CC3)cc2)ncc1OCc1ccc(C)cc1 [Compound 15, N-(2-((5-((4-methylbenzyl)oxy)-2-((4-(4-methylpiperazin-1-yl)phenyl)amino)pyrimidin-4-yl)amino)phenyl)acrylamide] |
| > 10000 |  | C=CC(=O)Nc1ccccc1Nc1nc(Nc2ccc(N3CCN(C)CC3)cc2)ncc1C(=O)Nc1c(C)cc(C(=O)O)cc1Cl [Compound 30, 3-chloro-5-methyl-4-(2-{[4-(4-methylpiperazin-1-yl)phenyl]amino}-4-{[2-(prop-2-enamido)phenyl]amino}pyrimidine-5-amido)benzoic acid] |
| 100 to 1000 | 10 to 100 | C=CC(=O)Nc1ccc(C)cc1Nc1nc(Nc2ccc(N3CCN(C)CC3)cc2)nc2ccoc12 [Compound 47, N-{4-methyl-2-[(2-{[4-(4-methylpiperazin-1-yl)phenyl]amino}furo [3,2-d]pyrimidin-4-yl)amino]phenyl}prop-2-enamide] |
